Data: patent US6329338A, “Derivatives of cyclodepsipeptide PF1022 substance” (Meiji Seika Kaisha, Ltd., priority 1995, dated 2001)

Experiments:
Haemonchus contortus = experiment: in vivo test on anthelmintic activity against sheep parasites (faecal egg count before and after dosing); conditions: sheep infested with Haemonchus contortus; oral, gelatine capsules
Source text: "in vivo" Test on Anthelmintic Activity Against Sheep Parasites
To sheep on which a nematode, Haemonchus contortus has been infested, a test compounds formulated in the form of gelatine capsules was orally administered at its dose (mg) which was accurately calculated on the basis of the body weight (kg) of the tested sheep.
The number of eggs, which were excreted along with feces from the sheep under test, was counted quantitatively both before and after the administration of the test compound. Thus, the extent of the anthelmintic effects of the test compound was evaluated. The test results are shown in Table 1 below, wherein the tested compounds are indicated by the code number of each substance tested. In Table 1, there is shown the dosage of test compound at which involvement of the excretion of eggs could not be observed at all, that is to say, the dosage of each novel cyclodespsipeptide derivative of PF1022 substance according to this invention at which the parasite could be expelled or exterminated completely.

[1] = test system: Nippostrongylus brasiliensis; experiment: in vivo test on anthelmintic activity against Nippostrongylus brasiliensis in rats (adult parasites remaining in small intestine); conditions: male Wister rats, oral, ten days after administration, vs infected untreated control
Experimental: "in vivo" Test on Anthelmintic Activity Against Nipostrongylus brasiliensis Male rats of Wister strain, which have been artificially infected with Nippostrongylus brasiliensis, were used as test animals. The administration dose (mg) of each test compound was accurately calculated on the basis of the body weight (kg) of each rat. Each compound tested was used in the form of a solution in dimethlsulfoxide or methanol. The solution was diluted with a Ringer solution and forcedly administered orally to the test rats. Ten days after the administration, the rats were dissected and the number of adult parasites remaining in the small intestines of the rats was counted. Efficacy was calculated in comparison with the number of adult parasites in the control group of test rats (infected, but untreated) and is shown in Table 2 below.

Row | Molecule | Adminstration dose (mg/kg): dosage at which excretion of eggs could not be observed at all (parasite expelled completely) (Haemonchus contortus) [mg/kg] | also measured
1 | Cyclo[MeLeu-Lac-MeLeu-(pipCH2 CH2 O)PhLac-MeLeu-Lac-MeLeu-PhLac] [PF1022-285] | 0.1 | –
2 | Cyclo[MeLeu-(MorCH2 CH2 O)PhLac-MeLeu-Lac-MeLeu-PhLac-MeLeu-Lac] [PF1022-239] | 0.025 | –
3 | Cyclo[MeLeu-(Mor)PhLac-MeLeu-Lac] [reference compound] | 0.05 | –
4 | Cyclo[MeLeu-Lac-MeLeu-(Bu2 NCH2 CH2 O)PhLac-MeLeu-Lac-MeLeu-PhLac] [PF1022-271] | – | Efficacy (%) ([1]; dosage 5 mg/kg): 100%
5 | CC(C)C[C@H]1C(=O)O[C@H](Cc2ccccc2)C(=O)N(C)[C@@H](CC(C)C)C(=O)O[C@H](C)C(=O)N(C)[C@@H](CC(C)C)C(=O)O[C@H](Cc2ccccc2)C(=O)N(C)[C@@H](CC(C)C)C(=O)O[C@H](C)C(=O)N1C [PF1022 substance, Cyclo(L-MeLeu-D-Lac-L-MeLeu-D-PhLac-L-MeLeu-D-Lac-L-MeLeu-D-PhLac)] | 0.25 | Efficacy (%) ([1]; dosage 10 mg/kg): 80.2%
6 | Cyclo[MeLeu-Lac-MeLeu-(furfuryloxy)PhLac-MeLeu-Lac-MeLeu-PhLac] [PF1022-312] | 0.05 | –
7 | Cyclo[MeLeu-Lac-MeLeu-(imidazolyl-4-methoxy)PhLac-MeLeu-Lac-MeLeu-PhLac] [PF1022-304] | 0.05 | –
8 | CCN(CC)CCOc1ccc(C[C@H]2OC(=O)[C@H](CC(C)C)N(C)C(=O)[C@@H](C)OC(=O)[C@H](CC(C)C)N(C)C(=O)[C@@H](Cc3ccccc3)OC(=O)[C@H](CC(C)C)N(C)C(=O)[C@@H](C)OC(=O)[C@H](CC(C)C)N(C)C2=O)cc1 [PF1022-236, Cyclo[MeLeu-Lac-MeLeu-((C2 H5)2 NCH2 CH2 O)PhLac-MeLeu-Lac-MeLeu-PhLac]] | 0.01 | –
9 | Cyclo[MeLeu-Lac-MeLeu-((C6 H5)2 CHOCO)Lac]2 [PF1022-045] | 0.1 | –
10 | Cyclo[MeLeu-Lac-MeLeu-(t-BuO)PhLac]2 [PF1022-222] | 0.05 | –
11 | COCCN(CCOC)CCOc1ccc(CC2OC(=O)C(CC(C)C)N(C)C(=O)C(C)OC(=O)C(CC(C)C)N(C)C(=O)C(Cc3ccccc3)OC(=O)C(CC(C)C)N(C)C(=O)C(C)OC(=O)C(CC(C)C)N(C)C2=O)cc1 (stereo not drawn) [PF1022-238, Cyclo[MeLeu-((CH3 OCH2 CH2)2 NCH2 CH2 O)PhLac-MeLeu-Lac-MeLeu-PhLac-MeLeu-Lac]] | 0.01 | –
12 | Cyclo[MeLeu-(o-Mor)PhLac-MeLeu-Lac-MeLeu-(p-Mor)PhLac-MeLeu-Lac] [PF1022-280] | – | Efficacy (%) ([1]; dosage 1 mg/kg): 95.8%; Efficacy (%) ([1]; dosage 2 mg/kg): 99.3%; Efficacy (%) ([1]; dosage 5 mg/kg): 100%
13 | Cyclo[MeLeu-Lac-MeLeu-((C6 H5)2 CHOCO)Lac-MeLeu-Lac-MeLeu-PhLac] [PF1022-046] | 0.1 | –
14 | Cyclo[MeLeu-Lac-MeLeu-((C2 H5)2 NHCH2 CH2 O)PhLac]2 [PF1022-263] | 0.01 | –
15 | Cyclo[MeLeu-Lac-MeLeu-((CH3)2 NCH2 CH2 O)PhLac-MeLeu-Lac-MeLeu-PhLac] [PF1022-235] | 0.1 | –
16 | Cyclo[MeLeu-(Mor)PhLac-MeLeu-Lac-MeLeu-PhLac-MeLeu-Lac] [PF1022-233] | 0.05 | Efficacy (%) ([1]; dosage 1 mg/kg): 99.1%; Efficacy (%) ([1]; dosage 2 mg/kg): 100%; Efficacy (%) ([1]; dosage 5 mg/kg): 100%
17 | Cyclo[MeLeu-Lac-MeLeu-(Pr2 NCH2 CH2 O)PhLac-MeLeu-Lac-MeLeu-PhLac] [PF1022-270] | – | Efficacy (%) ([1]; dosage 2 mg/kg): 94.2%; Efficacy (%) ([1]; dosage 5 mg/kg): 99.7%
18 | Cyclo[MeLeu-Lac-MeLeu-PhLac-MeLeu-Lac-MeLeu-(NH2 CO)PhLac] [PF1022-242] | 0.01 | –
